Source: paper PMC4512239 (Clinical cancer research : an official journal of the …, 2015)

Assay: phase I safety and tolerability
Format: in vivo, human

CNC(=O)c1cccc(-c2ccc3c(N4CCOC[C@@H]4C)nc(N4CCOC[C@@H]4C)nc3n2)c1 [AZD2014]
grade 3 or above hypercholesterolemia or triglyceridemia (50 mg BD cohort): no grade 3 or above hypercholesterolemia or triglyceridemia was seen | dose limiting toxicities (50 mg BD starting dose, 6 patients): no DLTs | nausea, mucositis, diarrhea and vomiting: share of grade 3 or 4 (50 mg BD, Part A and Part B): less than 5% | rash: share of grade 3 or higher (50 mg BD, Part A and Part B): less than 5% | evaluable patients with dose limiting toxicities (70 mg BD): 2/4 | patients with dose limiting toxicities (100 mg BD): 4/4 | Anemia, Any grade (All 50mg BD solution (N=41)): 7 (17.1) Number (%) of patients | Anemia, CTCAE grade 1-2 (All 50mg BD solution (N=41)): 7 (17.1) Number (%) of patients | Anemia, CTCAE grade >=3 (All 50mg BD solution (N=41)): 0 Number (%) of patients | Back pain, Any grade (All 50mg BD solution (N=41)): 7 (17.1) Number (%) of patients | Back pain, CTCAE grade 1-2 (All 50mg BD solution (N=41)): 6 (14.6) Number (%) of patients | Back pain, CTCAE grade >=3 (All 50mg BD solution (N=41)): 1 (2.4) Number (%) of patients | Constipation, Any grade (All 50mg BD solution (N=41)): 13 (31.7) Number (%) of patients | Constipation, CTCAE grade 1-2 (All 50mg BD solution (N=41)): 13 (31.7) Number (%) of patients | Constipation, CTCAE grade >=3 (All 50mg BD solution (N=41)): 0 Number (%) of patients | Cough, Any grade (All 50mg BD solution (N=41)): 8 (19.5) Number (%) of patients | Cough, CTCAE grade 1-2 (All 50mg BD solution (N=41)): 8 (19.5) Number (%) of patients | Cough, CTCAE grade >=3 (All 50mg BD solution (N=41)): 0 Number (%) of patients | Decreased appetite, Any grade (All 50mg BD solution (N=41)): 17 (41.5) Number (%) of patients | Decreased appetite, CTCAE grade 1-2 (All 50mg BD solution (N=41)): 17 (41.5) Number (%) of patients | Decreased appetite, CTCAE grade >=3 (All 50mg BD solution (N=41)): 0 Number (%) of patients | Diarrhea, Any grade (All 50mg BD solution (N=41)): 17 (41.5) Number (%) of patients | Diarrhea, CTCAE grade 1-2 (All 50mg BD solution (N=41)): 17 (41.5) Number (%) of patients | Diarrhea, CTCAE grade >=3 (All 50mg BD solution (N=41)): 0 Number (%) of patients | Dry mouth, Any grade (All 50mg BD solution (N=41)): 8 (19.5) Number (%) of patients | Dry mouth, CTCAE grade 1-2 (All 50mg BD solution (N=41)): 8 (19.5) Number (%) of patients | Dry mouth, CTCAE grade >=3 (All 50mg BD solution (N=41)): 0 Number (%) of patients | Dyspnea, Any grade (All 50mg BD solution (N=41)): 7 (17.1) Number (%) of patients | Dyspnea, CTCAE grade 1-2 (All 50mg BD solution (N=41)): 5 (12.2) Number (%) of patients | Dyspnea, CTCAE grade >=3 (All 50mg BD solution (N=41)): 2 (4.9) Number (%) of patients | Fatigue, Any grade (All 50mg BD solution (N=41)): 32 (78.0) Number (%) of patients | Fatigue, CTCAE grade 1-2 (All 50mg BD solution (N=41)): 30 (73.2) Number (%) of patients | Fatigue, CTCAE grade >=3 (All 50mg BD solution (N=41)): 2 (4.9) Number (%) of patients | Hypokalemia, Any grade (All 50mg BD solution (N=41)): 6 (14.6) Number (%) of patients | Hypokalemia, CTCAE grade 1-2 (All 50mg BD solution (N=41)): 5 (12.2) Number (%) of patients | Hypokalemia, CTCAE grade >=3 (All 50mg BD solution (N=41)): 1 (2.4) Number (%) of patients | Lower respiratory tract infection, Any grade (All 50mg BD solution (N=41)): 7 (17.1) Number (%) of patients | Lower respiratory tract infection, CTCAE grade 1-2 (All 50mg BD solution (N=41)): 6 (14.6) Number (%) of patients | Lower respiratory tract infection, CTCAE grade >=3 (All 50mg BD solution (N=41)): 1 (2.4) Number (%) of patients | Mucositis, Any grade (All 50mg BD solution (N=41)): 20 (48.8) Number (%) of patients | Mucositis, CTCAE grade 1-2 (All 50mg BD solution (N=41)): 19 (46.3) Number (%) of patients | Mucositis, CTCAE grade >=3 (All 50mg BD solution (N=41)): 1 (2.4) Number (%) of patients | Nausea, Any grade (All 50mg BD solution (N=41)): 21 (51.2) Number (%) of patients | Nausea, CTCAE grade 1-2 (All 50mg BD solution (N=41)): 19 (46.3) Number (%) of patients | Nausea, CTCAE grade >=3 (All 50mg BD solution (N=41)): 2 (4.9) Number (%) of patients | Pruritus, Any grade (All 50mg BD solution (N=41)): 13 (31.7) Number (%) of patients | Pruritus, CTCAE grade 1-2 (All 50mg BD solution (N=41)): 13 (31.7) Number (%) of patients | Pruritus, CTCAE grade >=3 (All 50mg BD solution (N=41)): 0 Number (%) of patients | Rash, Any grade (All 50mg BD solution (N=41)): 17 (41.5) Number (%) of patients | Rash, CTCAE grade 1-2 (All 50mg BD solution (N=41)): 15 (36.6) Number (%) of patients | Rash, CTCAE grade >=3 (All 50mg BD solution (N=41)): 2 (4.9) Number (%) of patients | Vomiting, Any grade (All 50mg BD solution (N=41)): 12 (29.3) Number (%) of patients | Vomiting, CTCAE grade 1-2 (All 50mg BD solution (N=41)): 11 (26.8) Number (%) of patients | Vomiting, CTCAE grade >=3 (All 50mg BD solution (N=41)): 1 (2.4) Number (%) of patients | Anemia, Any grade (Part A 25mg BD solution (N=6)): 0 Number (%) of patients | Anemia, CTCAE grade 1-2 (Part A 25mg BD solution (N=6)): 0 Number (%) of patients | Anemia, CTCAE grade >=3 (Part A 25mg BD solution (N=6)): 0 Number (%) of patients | Back pain, Any grade (Part A 25mg BD solution (N=6)): 0 Number (%) of patients | Back pain, CTCAE grade 1-2 (Part A 25mg BD solution (N=6)): 0 Number (%) of patients | Back pain, CTCAE grade >=3 (Part A 25mg BD solution (N=6)): 0 Number (%) of patients | Constipation, Any grade (Part A 25mg BD solution (N=6)): 2 (33.3) Number (%) of patients | Constipation, CTCAE grade 1-2 (Part A 25mg BD solution (N=6)): 2 (33.3) Number (%) of patients | Constipation, CTCAE grade >=3 (Part A 25mg BD solution (N=6)): 0 Number (%) of patients | Cough, Any grade (Part A 25mg BD solution (N=6)): 3 (50.0) Number (%) of patients | Cough, CTCAE grade 1-2 (Part A 25mg BD solution (N=6)): 3 (50.0) Number (%) of patients | Cough, CTCAE grade >=3 (Part A 25mg BD solution (N=6)): 0 Number (%) of patients | Decreased appetite, Any grade (Part A 25mg BD solution (N=6)): 3 (50.0) Number (%) of patients | Decreased appetite, CTCAE grade 1-2 (Part A 25mg BD solution (N=6)): 3 (50.0) Number (%) of patients | Decreased appetite, CTCAE grade >=3 (Part A 25mg BD solution (N=6)): 0 Number (%) of patients | Diarrhea, Any grade (Part A 25mg BD solution (N=6)): 2 (33.3) Number (%) of patients | Diarrhea, CTCAE grade 1-2 (Part A 25mg BD solution (N=6)): 2 (33.3) Number (%) of patients | Diarrhea, CTCAE grade >=3 (Part A 25mg BD solution (N=6)): 0 Number (%) of patients | Dry mouth, CTCAE grade >=3 (Part A 25mg BD solution (N=6)): 0 Number (%) of patients | Dyspnea, Any grade (Part A 25mg BD solution (N=6)): 1 (16.7) Number (%) of patients | Dyspnea, CTCAE grade 1-2 (Part A 25mg BD solution (N=6)): 1 (16.7) Number (%) of patients | Dyspnea, CTCAE grade >=3 (Part A 25mg BD solution (N=6)): 0 Number (%) of patients | Fatigue, Any grade (Part A 25mg BD solution (N=6)): 3 (50.0) Number (%) of patients | Fatigue, CTCAE grade 1-2 (Part A 25mg BD solution (N=6)): 2 (33.3) Number (%) of patients | Fatigue, CTCAE grade >=3 (Part A 25mg BD solution (N=6)): 1 (16.7) Number (%) of patients | Hypokalemia, Any grade (Part A 25mg BD solution (N=6)): 2 (33.3) Number (%) of patients | Hypokalemia, CTCAE grade 1-2 (Part A 25mg BD solution (N=6)): 2 (33.3) Number (%) of patients | Hypokalemia, CTCAE grade >=3 (Part A 25mg BD solution (N=6)): 0 Number (%) of patients | Lower respiratory tract infection, Any grade (Part A 25mg BD solution (N=6)): 1 (16.7) Number (%) of patients | Lower respiratory tract infection, CTCAE grade 1-2 (Part A 25mg BD solution (N=6)): 0 Number (%) of patients | Lower respiratory tract infection, CTCAE grade >=3 (Part A 25mg BD solution (N=6)): 1 (16.7) Number (%) of patients | Mucositis, Any grade (Part A 25mg BD solution (N=6)): 2 (33.3) Number (%) of patients | Mucositis, CTCAE grade 1-2 (Part A 25mg BD solution (N=6)): 2 (33.3) Number (%) of patients | Mucositis, CTCAE grade >=3 (Part A 25mg BD solution (N=6)): 0 Number (%) of patients | Nausea, Any grade (Part A 25mg BD solution (N=6)): 2 (33.3) Number (%) of patients | Nausea, CTCAE grade 1-2 (Part A 25mg BD solution (N=6)): 2 (33.3) Number (%) of patients | Nausea, CTCAE grade >=3 (Part A 25mg BD solution (N=6)): 0 Number (%) of patients | Pruritus, Any grade (Part A 25mg BD solution (N=6)): 0 Number (%) of patients | Pruritus, CTCAE grade 1-2 (Part A 25mg BD solution (N=6)): 0 Number (%) of patients | Pruritus, CTCAE grade >=3 (Part A 25mg BD solution (N=6)): 0 Number (%) of patients | Rash, Any grade (Part A 25mg BD solution (N=6)): 1(16.7) Number (%) of patients | Rash, CTCAE grade 1-2 (Part A 25mg BD solution (N=6)): 1(16.7) Number (%) of patients | Rash, CTCAE grade >=3 (Part A 25mg BD solution (N=6)): 0 Number (%) of patients | Vomiting, Any grade (Part A 25mg BD solution (N=6)): 0 Number (%) of patients | Vomiting, CTCAE grade 1-2 (Part A 25mg BD solution (N=6)): 0 Number (%) of patients | Vomiting, CTCAE grade >=3 (Part A 25mg BD solution (N=6)): 0 Number (%) of patients | Anemia, Any grade (Part A 70mg BD solution (N=5)): 1 (20.0) Number (%) of patients | Anemia, CTCAE grade 1-2 (Part A 70mg BD solution (N=5)): 0 Number (%) of patients | Anemia, CTCAE grade >=3 (Part A 70mg BD solution (N=5)): 1 (20.0) Number (%) of patients | Back pain, Any grade (Part A 70mg BD solution (N=5)): 0 Number (%) of patients | Back pain, CTCAE grade 1-2 (Part A 70mg BD solution (N=5)): 0 Number (%) of patients | Back pain, CTCAE grade >=3 (Part A 70mg BD solution (N=5)): 0 Number (%) of patients | Constipation, Any grade (Part A 70mg BD solution (N=5)): 0 Number (%) of patients | Constipation, CTCAE grade 1-2 (Part A 70mg BD solution (N=5)): 0 Number (%) of patients | Constipation, CTCAE grade >=3 (Part A 70mg BD solution (N=5)): 0 Number (%) of patients | Cough, Any grade (Part A 70mg BD solution (N=5)): 1 (20.0) Number (%) of patients | Cough, CTCAE grade 1-2 (Part A 70mg BD solution (N=5)): 1 (20.0) Number (%) of patients | Cough, CTCAE grade >=3 (Part A 70mg BD solution (N=5)): 0 Number (%) of patients | Decreased appetite, Any grade (Part A 70mg BD solution (N=5)): 2 (40.0) Number (%) of patients | Decreased appetite, CTCAE grade 1-2 (Part A 70mg BD solution (N=5)): 2 (40.0) Number (%) of patients | Decreased appetite, CTCAE grade >=3 (Part A 70mg BD solution (N=5)): 0 Number (%) of patients | Diarrhea, Any grade (Part A 70mg BD solution (N=5)): 3 (60.0) Number (%) of patients | Diarrhea, CTCAE grade 1-2 (Part A 70mg BD solution (N=5)): 3 (60.0) Number (%) of patients | Diarrhea, CTCAE grade >=3 (Part A 70mg BD solution (N=5)): 0 Number (%) of patients | Dry mouth, Any grade (Part A 70mg BD solution (N=5)): 0 Number (%) of patients | Dry mouth, CTCAE grade 1-2 (Part A 70mg BD solution (N=5)): 0 Number (%) of patients | Dry mouth, CTCAE grade >=3 (Part A 70mg BD solution (N=5)): 0 Number (%) of patients | Dyspnea, Any grade (Part A 70mg BD solution (N=5)): 1 (20.0) Number (%) of patients | Dyspnea, CTCAE grade 1-2 (Part A 70mg BD solution (N=5)): 1 (20.0) Number (%) of patients | Dyspnea, CTCAE grade >=3 (Part A 70mg BD solution (N=5)): 0 Number (%) of patients
